Measured values published in patent publication US11255855B1, “COVID-19 spike-ACE2 binding assay for drug and antibody screening” (priority 2020, dated 2022).

Tests used:
[1] = system: SARS-COV-2-S-driven entry; type: cell-based, SARS-CoV-2 spike pseudovirus in A549 cells
[2] = system: VSV-G-driven entry; type: cell-based, VSV-G pseudovirus

| SMILES | blocking effect on pseudovirus entry into host A549 cells [1] | inhibition of SARS-COV-2-S-driven entry (in words) [1] | inhibition of VSV-G-driven entry (in words) [2] |
| --- | --- | --- | --- |
| COc1cc(C(=O)NS(=O)(=O)c2ccccc2C)ccc1Cc1cn(C)c2ccc(NC(=O)OC3CCCC3)cc12 [Zafirlukast] | blocking effect | inhibited | not VSV-G-driven entry |
| CN(C)C(=O)COC(=O)Cc1ccc(OC(=O)c2ccc(NC(=N)N)cc2)cc1 [camostat, Camostat Mesilate] |  | No inhibition |  |
| CCN1CCN(C(=O)N[C@@H](C(=O)N[C@@H]2C(=O)N3C(C(=O)O)=C(CSc4nnnn4C)CS[C@H]23)c2ccc(O)cc2)C(=O)C1=O [cefoperazone] |  | No inhibition |  |
